Our source for the Kd values is ChEMBL document CHEMBL3991601, “The target landscape of clinical kinase drugs” (Science, 2017).

One experiment addresses T1, Rab-like protein 3 (Homo sapiens, UniProt Q5HYI8).
T1 sequence (Q5HYI8 whole entry): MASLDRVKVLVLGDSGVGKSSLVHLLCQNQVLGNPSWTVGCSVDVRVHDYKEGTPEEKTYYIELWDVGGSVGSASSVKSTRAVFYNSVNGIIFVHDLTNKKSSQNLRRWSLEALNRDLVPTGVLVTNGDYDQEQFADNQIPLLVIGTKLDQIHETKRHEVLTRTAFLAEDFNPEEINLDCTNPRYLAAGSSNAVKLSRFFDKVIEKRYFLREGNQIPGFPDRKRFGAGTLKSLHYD

Experiment [1] has as its target Membrane-associated progesterone receptor component 1 (Homo sapiens, UniProt O00264).
The target of experiment [2] is T2, Inhibitor of nuclear factor kappa-B kinase subunit epsilon (Homo sapiens, UniProt Q14164).
T2 sequence (Q14164 whole entry): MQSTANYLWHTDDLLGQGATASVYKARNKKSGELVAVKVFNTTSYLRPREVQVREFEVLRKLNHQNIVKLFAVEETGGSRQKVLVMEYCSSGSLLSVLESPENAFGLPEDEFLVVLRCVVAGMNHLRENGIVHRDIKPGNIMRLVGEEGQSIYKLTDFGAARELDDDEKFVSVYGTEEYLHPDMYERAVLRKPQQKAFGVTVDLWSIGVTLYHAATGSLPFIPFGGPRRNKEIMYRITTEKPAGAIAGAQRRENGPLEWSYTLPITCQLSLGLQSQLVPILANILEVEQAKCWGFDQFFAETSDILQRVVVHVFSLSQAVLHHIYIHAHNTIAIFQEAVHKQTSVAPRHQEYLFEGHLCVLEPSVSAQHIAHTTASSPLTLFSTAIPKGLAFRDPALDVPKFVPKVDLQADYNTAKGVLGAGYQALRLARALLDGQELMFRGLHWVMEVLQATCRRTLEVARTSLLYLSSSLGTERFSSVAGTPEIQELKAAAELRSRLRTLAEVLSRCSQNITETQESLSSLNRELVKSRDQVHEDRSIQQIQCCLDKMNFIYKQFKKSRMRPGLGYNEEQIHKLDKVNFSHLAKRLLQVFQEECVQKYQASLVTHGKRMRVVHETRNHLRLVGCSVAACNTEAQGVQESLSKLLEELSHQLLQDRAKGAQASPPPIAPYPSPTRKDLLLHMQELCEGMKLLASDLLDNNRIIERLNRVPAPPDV

Experiment [3] deals with T3, Very long-chain specific acyl-CoA dehydrogenase, mitochondrial (Homo sapiens, UniProt P49748).
T3 sequence (P49748 whole entry): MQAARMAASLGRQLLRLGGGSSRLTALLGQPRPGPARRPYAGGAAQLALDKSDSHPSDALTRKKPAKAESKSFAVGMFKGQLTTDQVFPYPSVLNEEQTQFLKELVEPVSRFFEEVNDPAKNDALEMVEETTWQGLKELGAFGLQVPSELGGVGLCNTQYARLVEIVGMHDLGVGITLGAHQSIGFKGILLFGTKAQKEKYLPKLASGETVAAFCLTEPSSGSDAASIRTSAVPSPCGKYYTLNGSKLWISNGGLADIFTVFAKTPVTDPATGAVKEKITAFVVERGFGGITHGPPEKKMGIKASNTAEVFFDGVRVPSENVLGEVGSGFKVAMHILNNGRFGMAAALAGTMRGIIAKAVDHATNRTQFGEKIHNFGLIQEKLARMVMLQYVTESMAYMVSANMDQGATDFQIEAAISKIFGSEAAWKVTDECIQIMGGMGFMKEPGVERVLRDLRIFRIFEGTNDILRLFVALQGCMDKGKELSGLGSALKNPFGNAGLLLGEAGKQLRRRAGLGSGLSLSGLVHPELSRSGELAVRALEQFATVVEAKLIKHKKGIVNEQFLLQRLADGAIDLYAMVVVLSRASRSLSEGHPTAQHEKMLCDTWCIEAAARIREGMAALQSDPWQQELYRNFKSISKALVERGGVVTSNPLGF

Experiment [4] addresses BMP-2-inducible protein kinase (Homo sapiens, UniProt Q9NSY1).
In experiment [5] the target is Mitogen-activated protein kinase 7 (Homo sapiens, UniProt Q13164).
For experiment [6], the target named is Putative heat shock protein HSP 90-beta 2 (Homo sapiens, UniProt Q58FF8).
For the next experiment, the target named is Adenosine kinase (Homo sapiens, UniProt P55263).
Experiment [7] addresses Serine/threonine-protein kinase PAK 4 (Homo sapiens, UniProt O96013).
Experiment [8] addresses T4, Acyl-CoA dehydrogenase family member 10 (Homo sapiens, UniProt Q6JQN1).
T4 sequence (Q6JQN1 whole entry): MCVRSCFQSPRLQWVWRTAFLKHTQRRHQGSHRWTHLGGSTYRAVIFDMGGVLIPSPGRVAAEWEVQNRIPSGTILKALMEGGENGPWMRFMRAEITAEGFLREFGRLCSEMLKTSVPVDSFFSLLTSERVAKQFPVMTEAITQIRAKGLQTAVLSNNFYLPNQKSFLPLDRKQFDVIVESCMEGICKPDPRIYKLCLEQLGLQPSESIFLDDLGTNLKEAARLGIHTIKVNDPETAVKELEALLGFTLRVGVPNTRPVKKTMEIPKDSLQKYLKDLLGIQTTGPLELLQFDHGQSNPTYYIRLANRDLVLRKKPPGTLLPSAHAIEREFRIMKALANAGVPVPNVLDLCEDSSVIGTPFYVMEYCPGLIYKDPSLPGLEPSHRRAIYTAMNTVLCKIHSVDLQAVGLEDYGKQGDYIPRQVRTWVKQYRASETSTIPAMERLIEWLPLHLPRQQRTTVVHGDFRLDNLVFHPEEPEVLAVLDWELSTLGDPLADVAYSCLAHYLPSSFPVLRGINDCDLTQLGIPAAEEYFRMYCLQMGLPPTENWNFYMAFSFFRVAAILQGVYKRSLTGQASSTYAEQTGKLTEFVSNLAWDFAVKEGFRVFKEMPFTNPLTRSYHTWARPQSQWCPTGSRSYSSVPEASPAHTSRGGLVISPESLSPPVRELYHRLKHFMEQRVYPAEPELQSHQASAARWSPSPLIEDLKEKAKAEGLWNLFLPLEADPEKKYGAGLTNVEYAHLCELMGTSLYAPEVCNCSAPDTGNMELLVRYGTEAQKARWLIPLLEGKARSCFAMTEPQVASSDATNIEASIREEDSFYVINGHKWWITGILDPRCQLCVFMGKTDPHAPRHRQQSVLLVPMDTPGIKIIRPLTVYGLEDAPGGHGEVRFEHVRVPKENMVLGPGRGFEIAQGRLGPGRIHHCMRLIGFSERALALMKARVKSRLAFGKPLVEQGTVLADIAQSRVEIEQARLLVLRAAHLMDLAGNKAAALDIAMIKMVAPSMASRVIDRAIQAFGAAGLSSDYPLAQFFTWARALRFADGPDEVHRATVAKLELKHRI

The source made the active and inactive calls.
Note: in the data inactive means no Kd found up to 30 µM.

Sequence of BMP-2-inducible protein kinase (Q9NSY1 whole entry): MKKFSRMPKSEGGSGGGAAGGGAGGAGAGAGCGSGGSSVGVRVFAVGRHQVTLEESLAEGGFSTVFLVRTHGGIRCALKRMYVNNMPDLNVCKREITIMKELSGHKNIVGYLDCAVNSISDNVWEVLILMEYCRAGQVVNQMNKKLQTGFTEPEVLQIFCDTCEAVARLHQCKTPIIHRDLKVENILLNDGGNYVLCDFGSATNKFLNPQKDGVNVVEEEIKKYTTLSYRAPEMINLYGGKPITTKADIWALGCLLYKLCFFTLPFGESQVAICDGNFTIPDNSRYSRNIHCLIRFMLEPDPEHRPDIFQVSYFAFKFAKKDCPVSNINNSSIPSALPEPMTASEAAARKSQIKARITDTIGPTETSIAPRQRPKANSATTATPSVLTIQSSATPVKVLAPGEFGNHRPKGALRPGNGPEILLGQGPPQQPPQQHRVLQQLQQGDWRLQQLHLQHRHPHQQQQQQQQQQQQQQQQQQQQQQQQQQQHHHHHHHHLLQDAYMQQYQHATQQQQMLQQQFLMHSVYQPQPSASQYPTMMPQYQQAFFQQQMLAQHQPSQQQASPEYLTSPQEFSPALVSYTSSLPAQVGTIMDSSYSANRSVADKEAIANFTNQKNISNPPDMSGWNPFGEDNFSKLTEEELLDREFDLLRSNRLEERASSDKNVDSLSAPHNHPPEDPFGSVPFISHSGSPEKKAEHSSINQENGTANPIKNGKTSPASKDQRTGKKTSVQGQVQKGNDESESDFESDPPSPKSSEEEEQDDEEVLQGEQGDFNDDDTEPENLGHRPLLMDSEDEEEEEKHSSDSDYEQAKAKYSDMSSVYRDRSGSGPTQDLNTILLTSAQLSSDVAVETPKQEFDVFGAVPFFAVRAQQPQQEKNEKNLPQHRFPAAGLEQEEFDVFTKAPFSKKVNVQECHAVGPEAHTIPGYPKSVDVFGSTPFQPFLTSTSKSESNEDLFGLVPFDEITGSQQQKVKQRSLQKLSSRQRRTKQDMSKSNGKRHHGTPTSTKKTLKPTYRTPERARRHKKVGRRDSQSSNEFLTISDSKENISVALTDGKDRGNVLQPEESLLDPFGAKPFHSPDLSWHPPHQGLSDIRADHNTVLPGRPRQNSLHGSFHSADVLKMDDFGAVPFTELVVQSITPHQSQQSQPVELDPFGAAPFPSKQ
Sequence of Putative heat shock protein HSP 90-beta 2 (Q58FF8 whole entry): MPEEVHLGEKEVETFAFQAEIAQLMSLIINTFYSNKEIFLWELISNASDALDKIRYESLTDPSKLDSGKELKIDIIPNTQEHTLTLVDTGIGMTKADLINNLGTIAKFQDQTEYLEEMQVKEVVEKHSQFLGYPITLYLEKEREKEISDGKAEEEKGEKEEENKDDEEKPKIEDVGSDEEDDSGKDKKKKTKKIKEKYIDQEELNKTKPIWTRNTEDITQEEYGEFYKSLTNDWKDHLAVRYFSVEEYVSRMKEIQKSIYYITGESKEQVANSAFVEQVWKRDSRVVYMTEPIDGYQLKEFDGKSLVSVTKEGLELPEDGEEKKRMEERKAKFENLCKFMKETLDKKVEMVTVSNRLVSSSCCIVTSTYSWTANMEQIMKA
Sequence of Membrane-associated progesterone receptor component 1 (O00264 whole entry): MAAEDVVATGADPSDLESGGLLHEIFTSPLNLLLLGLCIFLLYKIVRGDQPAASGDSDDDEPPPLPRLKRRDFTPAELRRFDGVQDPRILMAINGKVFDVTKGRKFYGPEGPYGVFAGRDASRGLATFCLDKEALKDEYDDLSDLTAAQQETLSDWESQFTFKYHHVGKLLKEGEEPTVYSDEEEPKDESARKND
Sequence of Adenosine kinase (P55263 whole entry): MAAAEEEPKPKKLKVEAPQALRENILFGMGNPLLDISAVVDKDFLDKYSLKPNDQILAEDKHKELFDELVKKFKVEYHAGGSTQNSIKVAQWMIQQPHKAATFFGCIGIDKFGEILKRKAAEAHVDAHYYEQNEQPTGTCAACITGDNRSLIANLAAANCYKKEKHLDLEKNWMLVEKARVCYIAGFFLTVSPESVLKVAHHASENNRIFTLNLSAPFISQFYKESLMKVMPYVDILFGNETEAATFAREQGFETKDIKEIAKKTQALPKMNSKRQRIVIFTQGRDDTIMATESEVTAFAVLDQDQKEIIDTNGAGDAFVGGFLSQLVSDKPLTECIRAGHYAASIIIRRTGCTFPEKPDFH
Sequence of Mitogen-activated protein kinase 7 (Q13164 whole entry): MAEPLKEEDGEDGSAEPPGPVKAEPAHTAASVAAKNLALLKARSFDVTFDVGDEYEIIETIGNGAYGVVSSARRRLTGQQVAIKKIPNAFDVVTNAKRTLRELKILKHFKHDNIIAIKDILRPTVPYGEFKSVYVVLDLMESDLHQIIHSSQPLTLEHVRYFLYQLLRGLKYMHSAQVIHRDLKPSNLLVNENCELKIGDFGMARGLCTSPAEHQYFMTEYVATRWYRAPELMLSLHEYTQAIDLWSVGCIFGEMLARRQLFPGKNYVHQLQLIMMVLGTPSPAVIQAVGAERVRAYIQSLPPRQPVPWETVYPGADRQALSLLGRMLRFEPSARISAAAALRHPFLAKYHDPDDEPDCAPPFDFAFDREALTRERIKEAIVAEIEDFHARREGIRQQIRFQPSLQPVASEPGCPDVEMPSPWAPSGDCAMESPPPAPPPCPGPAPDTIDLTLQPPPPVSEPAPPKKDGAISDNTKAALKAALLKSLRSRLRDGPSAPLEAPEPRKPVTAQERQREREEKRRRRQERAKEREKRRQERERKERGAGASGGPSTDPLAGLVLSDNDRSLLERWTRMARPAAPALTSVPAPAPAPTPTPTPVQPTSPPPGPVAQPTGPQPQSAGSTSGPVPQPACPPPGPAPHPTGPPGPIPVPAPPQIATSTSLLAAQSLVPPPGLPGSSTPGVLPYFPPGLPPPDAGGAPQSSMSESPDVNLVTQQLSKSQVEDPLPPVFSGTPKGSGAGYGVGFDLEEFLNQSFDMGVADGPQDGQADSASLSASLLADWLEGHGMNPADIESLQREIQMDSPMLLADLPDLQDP
Sequence of Serine/threonine-protein kinase PAK 4 (O96013 whole entry): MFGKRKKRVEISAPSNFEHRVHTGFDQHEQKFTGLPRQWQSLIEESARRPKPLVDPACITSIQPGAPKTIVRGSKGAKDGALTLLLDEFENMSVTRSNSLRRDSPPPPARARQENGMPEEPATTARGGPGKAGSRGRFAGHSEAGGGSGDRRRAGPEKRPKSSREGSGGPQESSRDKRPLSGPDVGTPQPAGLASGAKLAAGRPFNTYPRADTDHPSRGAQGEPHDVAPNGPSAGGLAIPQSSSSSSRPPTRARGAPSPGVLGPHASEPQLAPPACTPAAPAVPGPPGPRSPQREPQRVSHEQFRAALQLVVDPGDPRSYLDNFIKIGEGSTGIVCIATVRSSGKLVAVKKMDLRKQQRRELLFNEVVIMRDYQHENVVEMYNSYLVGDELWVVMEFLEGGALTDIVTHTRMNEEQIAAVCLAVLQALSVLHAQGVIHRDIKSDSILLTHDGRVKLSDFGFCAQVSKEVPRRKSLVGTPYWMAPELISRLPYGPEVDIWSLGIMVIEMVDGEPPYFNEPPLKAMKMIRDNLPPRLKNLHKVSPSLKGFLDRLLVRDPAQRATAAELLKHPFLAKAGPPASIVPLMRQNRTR

On to `C[C@H]1CNCCCN1S(=O)(=O)c1cccc2cncc(F)c12`, for which the Kd (on Rab-like protein 3; in [1]; in experiment [2]; in experiment [3]; in [4]; in experiment [5]) was > 30 µM (inactive) throughout. Further, the Kd (in experiment [6]; on Adenosine kinase; in experiment [7]; in [8]) was > 30 µM (inactive) each time.

With `CCNC(=O)C#Cc1ccc2c(c1)NC(=O)/C2=C(\Nc1ccc(CN(C)C)cc1)c1ccccc1`, the Kd (as a rule, the equilibrium constant for the complex coming apart) was > 30 µM (inactive) on Rab-like protein 3; > 30 µM (inactive) in experiment [1]; 0.408 µM (active) in experiment [2]; > 30 µM (inactive) in [3]; > 30 µM (inactive) in experiment [4]; > 30 µM (inactive) in experiment [5]. For the same compound, the Kd (in experiment [6]; on Adenosine kinase; in experiment [7]; in experiment [8]) was > 30 µM (inactive) in each case.

On to `C=CC(=O)N1CCC[C@H](n2c(=O)n(-c3ccc(Oc4ccccc4)cc3)c3c(N)ncnc32)C1`, for which the Kd (at Rab-like protein 3; in [1]; in [2]; in experiment [3]; in experiment [4]; in [5]) was > 30 µM (inactive) in each case. For the same compound, the Kd (in [6]; on Adenosine kinase; in experiment [7]; in [8]) was > 30 µM (inactive) throughout.

With `Cc1nc2cc(-c3nn(C(C)C)c4ncnc(N)c34)ccc2o1`, the Kd (at Rab-like protein 3; in [1]; in experiment [2]; in experiment [3]; in experiment [4]; in experiment [5]) was > 30 µM (inactive) in each case. The Kd (in [6]; on Adenosine kinase; in experiment [7]; in experiment [8]) was > 30 µM (inactive) throughout.

On to `COCc1c(-c2ccc(NC(=O)Nc3cc(C(F)(F)F)ccc3F)c(F)c2)c2c(N)ncnn2c1CN1CCOCC1`, for which the Kd (at Rab-like protein 3; in [1]; in experiment [2]; in [3]; in [4]; in experiment [5]) was > 30 µM (inactive) each time. In addition, the Kd (in experiment [6]; at Adenosine kinase; in experiment [7]; in experiment [8]) was > 30 µM (inactive) each time.

As for `Nc1ncnc2c1c(-c1cccc(OCc3ccccc3)c1)cn2[C@H]1C[C@@H](CN2CCC2)C1` [AEW-541], the Kd (on Rab-like protein 3; in experiment [1]; in [2]; in experiment [3]; in experiment [4]; in experiment [5]) was > 30 µM (inactive) each time. Also, the Kd (in experiment [6]; at Adenosine kinase; in [7]; in [8]) was > 30 µM (inactive) in each case.

For `Cc1csc(-c2nnc(Nc3ccc(Oc4ncccc4-c4ccnc(N)n4)cc3)c3ccccc23)c1` [AMG-900], the Kd (at Rab-like protein 3; in [1]; in [2]; in [3]; in experiment [4]; in [5]) was > 30 µM (inactive) throughout. Further, the Kd (in [6]; on Adenosine kinase; in experiment [7]; in [8]) was > 30 µM (inactive) each time.

In the case of `C=CC(=O)Nc1cc2c(Nc3ccc(F)c(Cl)c3)ncnc2cc1C#CC(C)(C)N1CCN(C)CC1` [AV-412 FREE BASE], the Kd (at Rab-like protein 3; in [1]; in [2]; in experiment [3]; in experiment [4]; in experiment [5]) was > 30 µM (inactive) throughout. The Kd (in [6]; on Adenosine kinase; in experiment [7]; in experiment [8]) was > 30 µM (inactive) throughout.

With `NC(=O)Nc1cc(-c2cccc(F)c2)sc1C(=O)N[C@H]1CCCNC1` [AZD-7762], the Kd at Rab-like protein 3 is > 30 µM (inactive); in experiment [1], > 30 µM (inactive); in [2], > 30 µM (inactive); in experiment [3], > 30 µM (inactive); in experiment [4], 0.181 µM (active); in experiment [5], > 30 µM (inactive). The Kd is > 30 µM (inactive) in experiment [6], > 30 µM (inactive) at Adenosine kinase, 0.166 µM (active) in [7] and > 30 µM (inactive) in experiment [8].

With `CO[C@H]1C[C@@H]2CC[C@@H](C)[C@@](O)(O2)C(=O)C(=O)N2CCCC[C@H]2C(=O)O[C@H]([C@H](C)C[C@@H]2CC[C@@H](OP(C)(C)=O)[C@H](OC)C2)CC(=O)[C@H](C)/C=C(\C)[C@@H](O)[C@@H](OC)C(=O)[C@H](C)C[C@H](C)/C=C/C=C/C=C/1C` [RIDAFOROLIMUS], the Kd (on Rab-like protein 3; in [1]; in [2]; in experiment [3]; in experiment [4]; in experiment [5]) was > 30 µM (inactive) each time. Besides, the Kd (at Adenosine kinase; in [7]; in [8]) was > 30 µM (inactive) in each case.
